Earlier results as cited in PMC4931242, “Enhancing digestibility and ethanol yield of Populus wood via expression of an engineered monolignol 4-O-methyltransferase” (Nature Communications, 2016).

Target: T1, MOMT4 (engineered monolignol 4-O-methyltransferase) (Clarkia breweri, UniProt O04385, T133L/E165I/H169F/F175I)
T1 construct: gene IEMT1; engineered quadruple active-site variant of isoeugenol 4-O-methyltransferase; purified enzyme
Experiment: 4-O-methylation kinetics
Assay type: biochemical
Conditions: co-substrate SAM; s.d., n=3

T1 sequence (O04385 whole entry T133L/E165I/H169F/F175I): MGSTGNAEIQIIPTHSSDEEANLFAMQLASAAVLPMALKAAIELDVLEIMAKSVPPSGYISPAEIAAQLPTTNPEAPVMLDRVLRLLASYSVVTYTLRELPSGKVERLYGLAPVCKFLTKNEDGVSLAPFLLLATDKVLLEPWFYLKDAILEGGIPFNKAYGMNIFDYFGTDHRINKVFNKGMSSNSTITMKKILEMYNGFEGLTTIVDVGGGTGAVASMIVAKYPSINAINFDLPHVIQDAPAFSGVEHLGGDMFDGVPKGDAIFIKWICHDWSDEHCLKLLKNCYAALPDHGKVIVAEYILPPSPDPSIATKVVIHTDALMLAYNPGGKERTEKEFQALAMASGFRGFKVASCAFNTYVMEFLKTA

Structure (SMILES)	Km [µM]
COc1cc(/C=C/CO)ccc1O [coniferyl alcohol]	193 ± 24.5
COc1cc(/C=C/CO)cc(OC)c1O [sinapyl alcohol]	68.1 ± 11.1
